Laboratory results: ChEMBL document CHEMBL1201862, “PubChem BioAssay data set” (2004)
One block for each compound: values may come before it. Activity calls are given as the source filed them.

Legend:
HEK293 [1] = assay: inhibition of NOD1-driven NF-kB reporter – cell-based, luminescence, uHTS, primary screen (AID 1578); assay type: functional; settings: Homo sapiens
HEK293 [2] = assay: cells; assay type: functional, cell-based; settings: Homo sapiens
HEK293 [3] = assay: cells; assay type: functional, cell-based; settings: Homo sapiens; remark: listed apart in the source
[4] = biological target: Nucleotide-binding oligomerization domain-containing protein 2 (Homo sapiens, UniProt Q9HC29); assay: inhibition of NOD2-driven NF-kB reporter – cell-based, luminescence, uHTS, HEK293 (AID 1566); assay type: functional
HEK293 [5] = assay: NOD2 signaling inhibitors in MDP-stimulated cells, cell-based, uHTS, luminescence (AID 2001); assay type: functional; settings: Homo sapiens
HEK293 [6] = assay: cells; assay type: functional, cell-based; settings: Homo sapiens; remark: listed apart in the source
[7] = HEK-293T viability loss after treatment – luminescence, T-cell screen hits, cytotoxicity control for TCR NF-kB inhibitor project, dose response (AID 489026); assay type: functional, cell-based;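 further: cells exposed to compound about 14 hours before the viability readout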
[8] = biological target: Alkaline phosphatase, placental type (Homo sapiens, UniProt P05187); assay: human placental alkaline phosphatase inhibition – biochemical, luminescence, confirmation (AID 1512); assay type: functional
[9] = biological target: T1, Alkaline phosphatase, tissue-nonspecific isozyme (Homo sapiens, UniProt P05186); assay: potency against alkaline phosphatase TNAP – biochemical, luminescent, dose response, SAR follow-up (AID 1056)
T1 sequence (P05186 whole entry): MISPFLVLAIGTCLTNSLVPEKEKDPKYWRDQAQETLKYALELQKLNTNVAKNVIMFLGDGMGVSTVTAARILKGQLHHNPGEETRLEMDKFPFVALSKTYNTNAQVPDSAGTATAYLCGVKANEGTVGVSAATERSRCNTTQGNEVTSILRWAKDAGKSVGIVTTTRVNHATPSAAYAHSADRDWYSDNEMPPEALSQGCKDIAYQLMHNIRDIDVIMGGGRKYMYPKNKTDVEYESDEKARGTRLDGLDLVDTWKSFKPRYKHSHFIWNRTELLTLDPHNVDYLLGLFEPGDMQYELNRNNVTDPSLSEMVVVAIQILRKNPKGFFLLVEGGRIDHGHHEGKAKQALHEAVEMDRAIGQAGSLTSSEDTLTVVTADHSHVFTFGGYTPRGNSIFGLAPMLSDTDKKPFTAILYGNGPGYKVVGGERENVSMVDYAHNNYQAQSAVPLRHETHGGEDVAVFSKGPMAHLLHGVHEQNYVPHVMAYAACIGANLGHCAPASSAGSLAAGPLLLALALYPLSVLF

[10] = NIH-3T3 fibroblast cytotoxicity, dose response, cytotoxicity control, cell-based, fluorescence, Alamar Blue, secondary assay (AID 2327); assay type: functional;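 further: NIH-3T3 mouse fibroblasts cultured with fluconazole at 8 µg/mL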
[11] = fluconazole-exposed Candida albicans growth modulators – fluorescence, retest, confirmation (AID 2467); assay type: functional, cell-based
[12] = biological target: DNA damage-inducible transcript 3 protein (Mus musculus, UniProt P35639); assay type: functional, Cricetulus griseus
X-box-binding protein 1 = X-box-binding protein 1 (Homo sapiens, UniProt P17861); assay type: functional, Cricetulus griseus;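 further: confirmatory dose-response counter-screen serving a CHOP assay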
[13] = biological target: T2, E3 ubiquitin-protein ligase XIAP (Homo sapiens, UniProt P98170); assay: Counter Screen using XIAP-Bir3 for Chemical Antagonists of Bir1/2 domains of IAP-family anti-apoptotic proteins. [Related pubchem assays (depositor defined):AID1018, AID1449, AID1514, AID1638, AID1749, AID1750, AID488957, AID488963]
[14] = biological target: T2, E3 ubiquitin-protein ligase XIAP; assay: small molecules displacing peptide from XIAP – biochemical, IAP family, fluorescence polarization (AID 1018); assay type: functional
[15] = biological target: T3, Rac GTPase-activating protein 1 (Homo sapiens, UniProt Q9H0H5); assay: blockers of MgcRacGAP-driven Rac1 GTP hydrolysis – biochemical, ADP Hunter fluorescence, primary and confirmatory, confirmation (AID 624330); assay type: functional
T3 sequence (Q9H0H5 whole entry): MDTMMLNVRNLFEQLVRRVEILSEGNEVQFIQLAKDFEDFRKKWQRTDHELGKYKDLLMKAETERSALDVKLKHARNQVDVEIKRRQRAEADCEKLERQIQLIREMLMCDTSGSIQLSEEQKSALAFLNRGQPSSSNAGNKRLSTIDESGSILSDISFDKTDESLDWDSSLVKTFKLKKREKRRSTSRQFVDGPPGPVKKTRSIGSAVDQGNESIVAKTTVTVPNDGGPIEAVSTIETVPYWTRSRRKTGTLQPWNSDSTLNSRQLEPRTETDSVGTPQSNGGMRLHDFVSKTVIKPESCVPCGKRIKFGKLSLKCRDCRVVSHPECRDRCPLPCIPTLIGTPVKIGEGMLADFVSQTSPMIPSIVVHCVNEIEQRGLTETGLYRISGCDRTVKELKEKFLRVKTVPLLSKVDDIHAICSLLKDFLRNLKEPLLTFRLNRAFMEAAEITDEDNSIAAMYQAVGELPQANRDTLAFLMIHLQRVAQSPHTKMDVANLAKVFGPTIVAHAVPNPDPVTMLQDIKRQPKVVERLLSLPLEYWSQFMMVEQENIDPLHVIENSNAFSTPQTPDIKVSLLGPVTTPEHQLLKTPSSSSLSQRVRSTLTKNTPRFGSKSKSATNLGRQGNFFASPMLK

[16] = biological target: Peroxisome proliferator-activated receptor gamma/Nuclear receptor coactivator 1 (Homo sapiens, UniProt P37231); assay: (§1) TR-FRET dose response biochemical High Throughput Screening assay for agonists of the steroid receptor coactivator 1 (SRC-1) recruitment by the peroxisome proliferator-activated receptor gamma (PPAR gamma): non-selective agonists. [Related pubchem assays (depositor defined):AID1300, AID1808, AID504735, AID631]; assay type: protein assay
[17] = biological target: Peroxisome proliferator-activated receptor gamma/Nuclear receptor coactivator 3 (Homo sapiens, UniProt P37231); assay: as §1, with “3 (SRC-3)” for “1 (SRC-1)”, “assays: 1301 (Confirmation screen.), 1048 (Primary screen.)]” for “assays (depositor defined):AID1300, AID1808, AID504735, AID631]”; assay type: functional
[18] = biological target: Peroxisome proliferator-activated receptor gamma/Nuclear receptor coactivator 2 (Homo sapiens, UniProt P37231); assay: TR-FRET dose response biochemical High Throughput Screening assay for agonists of the steroid receptor coactivator 2 (SRC-2) recruitment by the peroxisome proliferator-activated receptor gamma (PPAR gamma): non-selective agonists. [Related pubchem assays: 1297, 1032 ]; assay type: functional
Troponin, cardiac muscle = Troponin, cardiac muscle (Homo sapiens, UniProt P19429+P45379+P63316); assay: Fluorescence-based biochemical high throughput dose response assay for activators of the calcium sensitivity of cardiac Regulated Thin Filaments (RTF). [Related pubchem assays (depositor defined):AID493008, AID493018, AID504382, AID504383]; assay type: protein-complex assay
[19] = biological target: T4, Voltage-gated N-type calcium channel alpha-1B subunit/Amyloid beta A4 precursor protein-binding family A member 1 (Homo sapiens, UniProt Q00975+Q02410); assay type: protein assay
[20] = biological target: T4, Voltage-gated N-type calcium channel alpha-1B subunit/Amyloid beta A4 precursor protein-binding family A member 1; assay type: protein assay; remark: listed apart in the source
[21] = biological target: 1-acylglycerol-3-phosphate O-acyltransferase ABHD5/Perilipin-5 (Homo sapiens, UniProt Q00G26+Q8WTS1); assay: Luminescence-based biochemical high throughput dose response assay for inhibitors of the interaction of the lipase co-activator protein, abhydrolase domain containing 5 (ABHD5) with perilipin-5 (MLDP; PLIN5) (2K validation set). [Related pubchem assays (depositor defined):AID493035, AID493241]
Perilipin-1/ABHD5 = Perilipin-1/ABHD5 (Homo sapiens, UniProt O60240+Q8WTS1); assay: Luminescence-based biochemical high throughput dose response assay for inhibitors of the interaction of the lipase co-activator protein, abhydrolase domain containing 5 (ABHD5) with perilipin-1 (PLIN1) (2K validation set). [Related pubchem assays (depositor defined):AID493027, AID493057]

Structure (SMILES): COC(=O)Cc1nn(-c2nc3ccccc3s2)c(O)c1/C(C)=N/c1ccc(OC)cc1
EC50 (HEK293 [1]): < 0.31 µM (inactive)
IC50 (HEK293 [2]): 1.13 µM (active)
IC50 (HEK293 [3]): > 20 µM (inactive)
EC50 [4]: 0.1 µM (active)
IC50 (HEK293 [5]): 0.103 µM (active)
IC50 (HEK293 [6]): > 20 µM (inactive)
IC50 [7]: > 80 µM (inactive)

Structure (SMILES): CCCc1ccc(Oc2c[nH]nc2-c2ccc(O)cc2O)cc1
EC50 [10]: > 150 µM (inconclusive)
EC50 [11]: > 38 µM (not active)
Absolute IC50 (CHOP) [12]: 10 µM
Absolute IC50 (XBP1) (X-box-binding protein 1): 10 µM

Structure (SMILES): CCc1ccc2c(COC(=O)CNS(=O)(=O)c3ccc(NC(C)=O)cc3)cc(=O)oc2c1
EC50 (Troponin, cardiac muscle): > 71.5 µM (inactive)

Structure (SMILES): COC(=O)c1ccc(COc2ccc(/C=N/Nc3nc(C)cc(O)n3)cc2)cc1
IC50 [19]: > 56.8 µM (not active)
IC50 [20]: > 50 µM (inactive)

Structure (SMILES): COc1ccc(C(=O)/C=C/c2cc(C(=O)O)cc3c2OCOC3)c(O)c1
IC50 [21]: 6.24 µM (active)
IC50 (Perilipin-1/ABHD5): 4.42 µM (active)

Continued, values first:

IC50 [8]: 78.5 µM (active)
IC50 [9]: > 100 µM (inactive)
Structure (SMILES): CCCCN1C(=O)/C(=N\Nc2ccccc2F)c2ccccc21

IC50 [13]: > 100 µM (inactive)
IC50 [14]: > 100 µM (not active)
IC50 [15]: 230 µM (active)
Structure (SMILES): O=C(/C=C/Nc1ccc(Nc2ccccc2)cc1)c1cccs1

EC50 [16]: > 79.4 µM (inactive)
EC50 [17]: > 79.4 µM (not active)
EC50 [18]: > 79.4 µM (not active)
Structure (SMILES): Cn1c(=O)cc(SCC(=O)NCc2ccc(F)cc2)c2ccccc21

IC50 [19]: 4.65 µM (active)
IC50 [20]: > 50 µM (inactive)
Structure (SMILES): COc1ccc(/C=C/C(=O)NC(=S)Nc2ccc(S(=O)(=O)N=C(N)N)cc2)cc1OC
